Results as given in patent US20240067632A1, “WEE1 Degrading Compounds and Uses Thereof” (Bristol-Myers Squibb Company, priority 2022, published 2024).
Each block holds one compound with its values, some of them ahead of it.

What was measured:
[1] = molecular target: T1, WEE1 (Homo sapiens, UniProt P30291+Q96SW2); assay: WEE1-ePL degradation assay (LentiX-WEE1-ePL-GSPT1-ND cells, InCELL Hunter luminescence, 4 h); format: cell-based; conditions: 293T-LentiX WEE1-ePL cells; for 293T-LentiX WEE1-ePL Degradation 4 hr (Ymin): lower limit of the fit (0 = luciferase inhibitor, Ymax = DMSO control); for DC50: read-out: 293T-LentiX WEE1-ePL Degradation 4 hr (EC50)
T1 construct: C-terminal ePL-tagged (DiscoverX, Fremont, CA) full-length WEE1 expression construct; expressed in transfected cells; host or cells: LentiX-HEK293T (Invitrogen), lentiviral transduction; co-expressing GSPT1-GN (G576N, lacking the first 158 amino acids)
Method in brief: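 HEK293T cells stably expressing C-terminal ePL-tagged full-length WEE1, 2500 cells/well, treated 4 h at 37° C with a 10-point 3-fold series from 1 or 10 uM. Remaining WEE1-ePL read by InCELL Hunter luminescence after 30 min. EC50 came from a four-parameter logistic fit, with Ymax set from DMSO control.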

[2] = system: MKN45 cells; assay: MKN45 cell proliferation assay (Cell-Titer-Glo, 120 h); format: cell-based; conditions: for EC50: Homo sapiens, MKN-45, 120 h, Cell-Titer-Glo, growth inhibition, read-out: MKN45 Cell Prolif. 120 hr (EC50); for MKN45 Cell Prolif. 120 hr (Ymin-Obs): minimal percent of DMSO control observed in the concentrations tested
Method in brief: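 Cells seeded at 400/well onto pre-printed 10-point half-log dilutions (top 1 or 10 uM, 0.1% DMSO final), in triplicate, and grown 120 h at 37 C. Viability by Cell-Titer-Glo luminescence, blank-subtracted and normalised to DMSO; EC50 from four-parameter logistic fit, with observed minimal % of control recorded as Ymin-obs.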

Compound: COCc1ncc2cc(CN3CC[C@H](Oc4ccc5c(c4)CN(C4CCC(=O)NC4=O)C5=O)C3)ccc2n1 (stereo partly drawn) [3-(5-{[(3S)-1-{[2-(methoxymethyl)quinazolin-6-yl]methyl}pyrrolidin-3-yl]oxy}-1-oxo-2,3-dihydro-1H-isoindol-2-yl)piperidine-2,6-dione]
293T-LentiX WEE1-ePL Degradation 4 hr (Ymin) [1]: 32
DC50 [1]: 47.5 nM
EC50 [2]: 78.5 nM
MKN45 Cell Prolif. 120 hr (Ymin-Obs) [2]: 9.73

Compound: COCc1ccc2cc(CN3CC[C@H](Oc4ccc5c(c4)CN(C4CCC(=O)NC4=O)C5=O)C3)ccc2n1 (stereo partly drawn) [3-(5-{[(3S)-1-{[2-(methoxymethyl)quinolin-6-yl]methyl}pyrrolidin-3-yl]oxy}-1-oxo-2,3-dihydro-1H-isoindol-2-yl)piperidine-2,6-dione]
293T-LentiX WEE1-ePL Degradation 4 hr (Ymin) [1]: 30.5
DC50 [1]: 5.55 nM
EC50 [2]: 20.5 nM
MKN45 Cell Prolif. 120 hr (Ymin-Obs) [2]: 8.38

Compound: CNc1ncc2cc(CN3CC[C@H](Oc4ccc5c(c4)CN(C4CCC(=O)NC4=O)C5=O)C3)ccc2n1 (stereo partly drawn) [3-(5-{[(3S)-1-{[2-(methylamino)quinazolin-6-yl]methyl}pyrrolidin-3-yl]oxy}-1-oxo-2,3-dihydro-1H-isoindol-2-yl)piperidine-2,6-dione]
293T-LentiX WEE1-ePL Degradation 4 hr (Ymin) [1]: 41
DC50 [1]: 44.8 nM
EC50 [2]: 234 nM
MKN45 Cell Prolif. 120 hr (Ymin-Obs) [2]: 22.48

Compound: CNc1ccc2cc(CN3CC[C@H](Oc4ccc5c(c4)CN(C4CCC(=O)NC4=O)C5=O)C3)ccc2n1 (stereo partly drawn) [3-(5-{[(3S)-1-{[2-(methylamino)quinolin-6-yl]methyl}pyrrolidin-3-yl]oxy}-1-oxo-2,3-dihydro-1H-isoindol-2-yl)piperidine-2,6-dione]
293T-LentiX WEE1-ePL Degradation 4 hr (Ymin) [1]: 31.06
DC50 [1]: 7.21 nM
EC50 [2]: 21.8 nM
MKN45 Cell Prolif. 120 hr (Ymin-Obs) [2]: 9.31

Compound: O=C1CCC(N2Cc3cc(O[C@H]4CCN(Cc5ccc6nc(N7CCOCC7)ncc6c5)C4)ccc3C2=O)C(=O)N1 (stereo partly drawn) [3-(5-{[(3S)-1-{[2-(morpholin-4-yl)quinazolin-6-yl]methyl}pyrrolidin-3-yl]oxy}-1-oxo-2,3-dihydro-1H-isoindol-2-yl)piperidine-2,6-dione]
293T-LentiX WEE1-ePL Degradation 4 hr (Ymin) [1]: 31.33
DC50 [1]: 7.2 nM
EC50 [2]: 16.1 nM
MKN45 Cell Prolif. 120 hr (Ymin-Obs) [2]: 9.637

Compound: O=C1CCC(N2Cc3cc(O[C@H]4CCN(Cc5ccc6nc(C7CCOCC7)ncc6c5)C4)ccc3C2=O)C(=O)N1 (stereo partly drawn) [3-(5-{[(3S)-1-{[2-(oxan-4-yl)quinazolin-6-yl]methyl}pyrrolidin-3-yl]oxy}-1-oxo-2,3-dihydro-1H-isoindol-2-yl)piperidine-2,6-dione]
293T-LentiX WEE1-ePL Degradation 4 hr (Ymin) [1]: 30.5
DC50 [1]: 32.6 nM
EC50 [2]: 21.4 nM
MKN45 Cell Prolif. 120 hr (Ymin-Obs) [2]: 6.11

Compound: O=C1CCC(N2Cc3cc(O[C@H]4CCN(Cc5ccc6nc(OC7CCOCC7)ccc6c5)C4)ccc3C2=O)C(=O)N1 (stereo partly drawn) [3-(5-{[(3S)-1-{[2-(oxan-4-yloxy)quinolin-6-yl]methyl}pyrrolidin-3-yl]oxy}-1-oxo-2,3-dihydro-1H-isoindol-2-yl)piperidine-2,6-dione]
293T-LentiX WEE1-ePL Degradation 4 hr (Ymin) [1]: 33
DC50 [1]: 4.52 nM
EC50 [2]: 9.83 nM
MKN45 Cell Prolif. 120 hr (Ymin-Obs) [2]: 13.54

Compound: O=C1CCC(N2Cc3cc(O[C@H]4CCN(Cc5ccc6nc(C7COC7)ncc6c5)C4)ccc3C2=O)C(=O)N1 (stereo partly drawn) [3-(5-{[(3S)-1-{[2-(oxetan-3-yl)quinazolin-6-yl]methyl}pyrrolidin-3-yl]oxy}-1-oxo-2,3-dihydro-1H-isoindol-2-yl)piperidine-2,6-dione]
293T-LentiX WEE1-ePL Degradation 4 hr (Ymin) [1]: 30
DC50 [1]: 16.8 nM
EC50 [2]: 16.7 nM
MKN45 Cell Prolif. 120 hr (Ymin-Obs) [2]: 7.8

Compound: O=C1CCC(N2Cc3cc(O[C@H]4CCN(Cc5ccc6nc(C7COC7)ccc6c5)C4)ccc3C2=O)C(=O)N1 (stereo partly drawn) [3-(5-{[(3S)-1-{[2-(oxetan-3-yl)quinolin-6-yl]methyl}pyrrolidin-3-yl]oxy}-1-oxo-2,3-dihydro-1H-isoindol-2-yl)piperidine-2,6-dione]
293T-LentiX WEE1-ePL Degradation 4 hr (Ymin) [1]: 33
DC50 [1]: 3.79 nM
EC50 [2]: 11.2 nM
MKN45 Cell Prolif. 120 hr (Ymin-Obs) [2]: 10.08

Compound: COCc1cnc2ccc(CN3CC[C@H](Oc4ccc5c(c4)CN(C4CCC(=O)NC4=O)C5=O)C3)cc2c1 (stereo partly drawn) [3-(5-{[(3S)-1-{[3-(methoxymethyl)quinolin-6-yl]methyl}pyrrolidin-3-yl]oxy}-1-oxo-2,3-dihydro-1H-isoindol-2-yl)piperidine-2,6-dione]
293T-LentiX WEE1-ePL Degradation 4 hr (Ymin) [1]: 33
DC50 [1]: 4.28 nM
EC50 [2]: 11.1 nM
MKN45 Cell Prolif. 120 hr (Ymin-Obs) [2]: 7.64

Compound: CNc1cnc2ccc(CN3CC[C@H](Oc4ccc5c(c4)CN(C4CCC(=O)NC4=O)C5=O)C3)cc2c1 (stereo partly drawn) [3-(5-{[(3S)-1-{[3-(methylamino)quinolin-6-yl]methyl}pyrrolidin-3-yl]oxy}-1-oxo-2,3-dihydro-1H-isoindol-2-yl)piperidine-2,6-dione]
293T-LentiX WEE1-ePL Degradation 4 hr (Ymin) [1]: 34
DC50 [1]: 18.1 nM
EC50 [2]: 204 nM
MKN45 Cell Prolif. 120 hr (Ymin-Obs) [2]: 16.86

Compound: O=C1CCC(N2Cc3cc(O[C@H]4CCN(Cc5ccc6ncc(C7COC7)cc6c5)C4)ccc3C2=O)C(=O)N1 (stereo partly drawn) [3-(5-{[(3S)-1-{[3-(oxetan-3-yl)quinolin-6-yl]methyl}pyrrolidin-3-yl]oxy}-1-oxo-2,3-dihydro-1H-isoindol-2-yl)piperidine-2,6-dione]
293T-LentiX WEE1-ePL Degradation 4 hr (Ymin) [1]: 30
DC50 [1]: 4.67 nM
EC50 [2]: 5.04 nM
MKN45 Cell Prolif. 120 hr (Ymin-Obs) [2]: 8.08

Compound: Cc1nc(N2CCOCC2)nc2ccc(CN3CC[C@H](Oc4ccc5c(c4)CN(C4CCC(=O)NC4=O)C5=O)C3)cc12 (stereo partly drawn) [3-(5-{[(3S)-1-{[4-methyl-2-(morpholin-4-yl)quinazolin-6-yl]methyl}pyrrolidin-3-yl]oxy}-1-oxo-2,3-dihydro-1H-isoindol-2-yl)piperidine-2,6-dione]
293T-LentiX WEE1-ePL Degradation 4 hr (Ymin) [1]: 36
DC50 [1]: 5.37 nM
EC50 [2]: 9.28 nM
MKN45 Cell Prolif. 120 hr (Ymin-Obs) [2]: 7.12

Compound: COCc1ccc2nc(CN3CC[C@H](Oc4ccc5c(c4)CN(C4CCC(=O)NC4=O)C5=O)C3)ccc2c1 (stereo partly drawn) [3-(5-{[(3S)-1-{[6-(methoxymethyl)quinolin-2-yl]methyl}pyrrolidin-3-yl]oxy}-1-oxo-2,3-dihydro-1H-isoindol-2-yl)piperidine-2,6-dione]
293T-LentiX WEE1-ePL Degradation 4 hr (Ymin) [1]: 46
DC50 [1]: 11.7 nM
EC50 [2]: 89.6 nM
MKN45 Cell Prolif. 120 hr (Ymin-Obs) [2]: 26.02

Compound: O=C1CCC(N2Cc3cc(O[C@H]4CCN(Cc5cc6cc(C7CCOCC7)ccc6cn5)C4)ccc3C2=O)C(=O)N1 (stereo partly drawn) [3-(5-{[(3S)-1-{[6-(oxan-4-yl)isoquinolin-3-yl]methyl}pyrrolidin-3-yl]oxy}-1-oxo-2,3-dihydro-1H-isoindol-2-yl)piperidine-2,6-dione]
293T-LentiX WEE1-ePL Degradation 4 hr (Ymin) [1]: 33.5
DC50 [1]: 5.55 nM
EC50 [2]: 12.3 nM
MKN45 Cell Prolif. 120 hr (Ymin-Obs) [2]: 13.12

Compounds with a lower DC50 [1], results first:

293T-LentiX WEE1-ePL Degradation 4 hr (Ymin) [1]: 35
DC50 [1]: 2.69 nM
EC50 [2]: 11.9 nM
Compound: O=C1CCC(N2Cc3cc(O[C@H]4CCN(Cc5ccc6nc(N7CCOCC7)ccc6c5)C4)ccc3C2=O)C(=O)N1 (stereo partly drawn) [3-(5-{[(3S)-1-{[2-(morpholin-4-yl)quinolin-6-yl]methyl}pyrrolidin-3-yl]oxy}-1-oxo-2,3-dihydro-1H-isoindol-2-yl)piperidine-2,6-dione]
MKN45 Cell Prolif. 120 hr (Ymin-Obs) [2]: 12.168

293T-LentiX WEE1-ePL Degradation 4 hr (Ymin) [1]: 32.6
DC50 [1]: 2.83 nM
EC50 [2]: 4.9 nM
Compound: O=C1CCC(N2Cc3cc(O[C@H]4CCN(Cc5ccc6nc(C7CCOCC7)ccc6c5)C4)ccc3C2=O)C(=O)N1 (stereo partly drawn) [3-(5-{[(3S)-1-{[2-(oxan-4-yl)quinolin-6-yl]methyl}pyrrolidin-3-yl]oxy}-1-oxo-2,3-dihydro-1H-isoindol-2-yl)piperidine-2,6-dione]
MKN45 Cell Prolif. 120 hr (Ymin-Obs) [2]: 12.83

293T-LentiX WEE1-ePL Degradation 4 hr (Ymin) [1]: 33
DC50 [1]: 3.38 nM
EC50 [2]: 14.4 nM
Compound: O=C1CCC(N2Cc3cc(O[C@H]4CCN(Cc5ccc6ncc(C(F)F)cc6c5)C4)ccc3C2=O)C(=O)N1 (stereo partly drawn) [3-(5-{[(3S)-1-{[3-(difluoromethyl)quinolin-6-yl]methyl}pyrrolidin-3-yl]oxy}-1-oxo-2,3-dihydro-1H-isoindol-2-yl)piperidine-2,6-dione]
MKN45 Cell Prolif. 120 hr (Ymin-Obs) [2]: 11.04

293T-LentiX WEE1-ePL Degradation 4 hr (Ymin) [1]: 27
DC50 [1]: 3.19 nM
EC50 [2]: 2.96 nM
Compound: O=C1CCC(N2Cc3cc(O[C@H]4CCN(Cc5ccc6ncc(N7CCOCC7)cc6c5)C4)ccc3C2=O)C(=O)N1 (stereo partly drawn) [3-(5-{[(3S)-1-{[3-(morpholin-4-yl)quinolin-6-yl]methyl}pyrrolidin-3-yl]oxy}-1-oxo-2,3-dihydro-1H-isoindol-2-yl)piperidine-2,6-dione]
MKN45 Cell Prolif. 120 hr (Ymin-Obs) [2]: 7.83

293T-LentiX WEE1-ePL Degradation 4 hr (Ymin) [1]: 35
DC50 [1]: 3.57 nM
EC50 [2]: 94.9 nM
Compound: [2H]c1nc2ccc(CN3CCC(Oc4ccc5c(c4)CN(C4CCC(=O)NC4=O)C5=O)C3)cc2cc1F [3-(5-{[(3S)-1-{[3-fluoro(2-^2H)quinolin-6-yl]methyl}pyrrolidin-3-yl]oxy}-1-oxo-2,3-dihydro-1H-isoindol-2-yl)piperidine-2,6-dione]
MKN45 Cell Prolif. 120 hr (Ymin-Obs) [2]: 21.68

293T-LentiX WEE1-ePL Degradation 4 hr (Ymin) [1]: 32
DC50 [1]: 1.33 nM
EC50 [2]: 1.29 nM
Compound: O=C1CCC(N2Cc3cc(O[C@H]4CCN(Cc5ccc6nc(C7CCOCC7)ccc6c5F)C4)ccc3C2=O)C(=O)N1 (stereo partly drawn) [3-(5-{[(3S)-1-{[5-fluoro-2-(oxan-4-yl)quinolin-6-yl]methyl}pyrrolidin-3-yl]oxy}-1-oxo-2,3-dihydro-1H-isoindol-2-yl)piperidine-2,6-dione]
MKN45 Cell Prolif. 120 hr (Ymin-Obs) [2]: 10.02
